Consider one compound from US20230129721A1, “STABILIZER FOR RADIOPHARMACEUTICALS AND RADIOPHARMACEUTICAL COMPOSITION COMPRISING THE SAME” (THE ASAN FOUNDATION, priority 2020, published 2023).

The nature of series [1]: Radiochemical purity of [^18F]PI-2620 radiopharmaceutical composition over time at 40° C. by HPLC. The format is physicochemical. Here is the method: Fluoride ([^18F]) and 2 mg of a precursor were dissolved in dimethyl sulfoxide, and the reaction mixture was fluorinated using an SN2 reaction at a temperature of 100° C. or higher. Then, a protecting group was hydrolyzed with sulfuric acid, and the mixture was neutralized with sodium hydroxide, purified using high-performance liquid chromatography (HPLC) (purification conditions: Luna C18 250×10 mm, phosphate buffer:acetonitrile=70:30 (v/v), 5.0 mL/min, UV=254 nm), and then formulated (formulation composition: 100 mg of sodium ascorbate, 2 nM phosphate buffer, and 10% ethanol) to obtain the [^18F]PI-2620 compound having a radiochemical purity of 100% (FIG. 1).
[^18F]PI-2620 was formulated with ethanol, ascorbic acid, and a phosphate buffer, and the radiochemical purity of the radiopharmaceutical composition was then measured at the elapsed times of 0 hour, 2 hours, 4 hours, and 6 hours at a temperature of 40° C. using HPLC (analysis conditions: Luna C18 250×4.6 mm, phosphate buffer:acetonitrile=60:40 (v/v), 1.0 mL/min, UV=254 nm).
[^18F]PI-2620 was obtained as a compound having a radiochemical purity of 100% in the same manner as in Example 1. To further confirm the stability of the compound, 2 equivalents of sodium ascorbate used in Example 1 was added during a formulation process (formulation composition: 200 mg of sodium ascorbate, a 2 nM phosphate buffer, and 10% ethanol), and the radiochemical purity of the radiopharmaceutical composition was then measured in the same manner as in Example 1 at the elapsed times of 0 hour, 2 hours, 4 hours, and 6 hours at a temperature of 40° C. using high-performance liquid chromatography (HPLC)
[^18F]PI-2620 was obtained as a compound having a radiochemical purity of 100% in the same manner as in Example 1. To check the causes of a decrease in radiochemical purity, the radiochemical purity of the radiopharmaceutical composition was then measured in the same manner as in Example 1 at the elapsed times of 0 hour, 2 hours, 4 hours, and 6 hours at a temperature of 40° C. under three formulation conditions (Condition 1: ethanol and water for injection (formulation composition: 10% ethanol); Condition 2: ethanol and a phosphate buffer (formulation composition: a 2 nM phosphate buffer and 10% ethanol); Condition 3: ethanol and a 2×phosphate buffer (formulation composition: a 4 nM phosphate buffer and 10% ethanol)) using high-performance liquid chromatography (HPLC).
[^18F]PI-2620 was obtained as a compound having a radiochemical purity of 98% or more in the same manner as in Example 1. As a novel stabilizing agent, vitamin B1 (VB1), vitamin B6 (VB6), vitamin B8 (VB8), vitamin B10 (VB10), or vitamin B12 (VB12) (formulation composition: 10% ethanol and a 50 mg/mL vitamin concentration) was added to ethanol and water for injection, and the radiochemical purity of the radiopharmaceutical composition was measured in the same manner as in Example 1 at the elapsed times of 0 hour, 2 hours, 4 hours, and 6 hours at a temperature of 40° C. using high-performance liquid chromatography (HPLC). A preparation including no vitamin B was used as the control.
[^18F]PI-2620 was obtained as a compound having a radiochemical purity of 98% or more in the same manner as in Example 1, and formulated with ethanol and a phosphate buffer (formulation composition: a 2 nM phosphate buffer and 10% ethanol). As a novel stabilizing agent, vitamin B1 (VB1), vitamin B6 (VB6), vitamin B8 (VB8), or vitamin B10 (VB10) was added at a concentration of 50 mg/mL, and the radiochemical purity of the radiopharmaceutical composition was measured in the same manner as in Example 1 at the elapsed times of 0 hour, 2 hours, 4 hours, and 6 hours at a temperature of 40° C. using high-performance liquid chromatography (HPLC). A preparation in which sodium ascorbate was added to the same concentrations of ethanol and phosphate buffer was used as the control. […]

The nature of series [2]: pH (paper) of [^18F]PI-2620 radiopharmaceutical composition over time at 40° C. The format is physicochemical.

Regarding `Nc1ccc(C(=O)O)cc1` [VB10, 4-aminobenzoic acid], the “Purity (radiochemical purity)” value in series [1] ([^18F]PI-2620, 2 nM phosphate buffer and 10% ethanol, vitamin 50 mg/mL (control: sodium ascorbate), 0 hr) was 98.01%; in series [1] ([^18F]PI-2620, 2 nM phosphate buffer and 10% ethanol, vitamin 50 mg/mL (control: sodium ascorbate), 2 hr), 94.44%; in series [1] ([^18F]PI-2620, 2 nM phosphate buffer and 10% ethanol, vitamin 50 mg/mL (control: sodium ascorbate), 4 hr), 91.25%; in series [1] ([^18F]PI-2620, 2 nM phosphate buffer and 10% ethanol, vitamin 50 mg/mL (control: sodium ascorbate), 6 hr), 86.09%; in series [1] ([^18F]PI-2620, ethanol and water for injection (10% ethanol), 50 mg/mL vitamin, no phosphate buffer, 0 hr) it was 99.15%; in series [1] ([^18F]PI-2620, ethanol and water for injection (10% ethanol), 50 mg/mL vitamin, no phosphate buffer, 2 hr) it was 98.71%. The “Purity (radiochemical purity)” value is 98.83% in series [1] ([^18F]PI-2620, ethanol and water for injection (10% ethanol), 50 mg/mL vitamin, no phosphate buffer, 4 hr); 98.73% in series [1] ([^18F]PI-2620, ethanol and water for injection (10% ethanol), 50 mg/mL vitamin, no phosphate buffer, 6 hr). In addition, the “PH (paper)” value in series [2] (2 nM phosphate buffer and 10% ethanol, vitamin 50 mg/mL (control: sodium ascorbate), 0 hr) was 6; in series [2] (2 nM phosphate buffer and 10% ethanol, vitamin 50 mg/mL (control: sodium ascorbate), 2 hr) it was 6; in series [2] (2 nM phosphate buffer and 10% ethanol, vitamin 50 mg/mL (control: sodium ascorbate), 4 hr), 6; in series [2] (2 nM phosphate buffer and 10% ethanol, vitamin 50 mg/mL (control: sodium ascorbate), 6 hr), 6; in series [2] (10% ethanol, water for injection, 50 mg/mL vitamin, 0 hr), 7; in series [2] (10% ethanol, water for injection, 50 mg/mL vitamin, 2 hr), 6. For the same compound, the “PH (paper)” value in series [2] (10% ethanol, water for injection, 50 mg/mL vitamin, 4 hr) was 7; in series [2] (10% ethanol, water for injection, 50 mg/mL vitamin, 6 hr), 7.
